Results reported in patent EP4786487A1, “PEPTIDE” (Peptidream Inc, priority 2023, dated 2025).
Read-outs that look alike come from different tables or passages of the source. Starred links: 1 amine or outer side, 2 acyl side, 3 side chain; linkers in the order of their positions; H or OH if unused. Positions of bridges follow the written chain, without caps; N, C: chain ends. Non-standard residues stand in square brackets, D forms with d. Residues, ends and D or L forms follow the SMILES beside them. *: point of attachment. X3 = O=C(O)COc1ccccc1-c1ccc(C[C@H](N[*:1])C(=O)[*:2])cc1; Phe(3-OCH2COOH) = N[C@@H](Cc1cccc(OCC(=O)O)c1)C(=O)O; Phe(4-COOH) = N[C@@H](Cc1ccc(C(=O)O)cc1)C(=O)O; Piperazinyl(4-CH2COOH) = O=C(O)CN1CCN(*)CC1; NMe2Nal = CN[C@@H](Cc1ccc2ccccc2c1)C(=O)O; Gly(Nα-CH2CH2CONH2) = NC(=O)CCNCC(=O)O; Gly(N(CH2)3COOH) = O=C(O)CCCNCC(=O)O; X1 = CCCCCCC[C@H](N[*:1])C(=O)[*:2]; X5 = CC(=O)NCCCN(CC(=O)[*:2])[*:1]; NMeF = CN[C@@H](Cc1ccccc1)C(=O)O; 4Pal = N[C@@H](Cc1ccncc1)C(=O)O; Ahp(2) = CCCCC[C@H](N)C(=O)O; NMeC = CN[C@@H](CS)C(=O)O; NMeA = CN[C@@H](C)C(=O)O; Sar = CNCC(=O)O

What was measured:
Myostatin = molecular target: T1, Myostatin (Homo sapiens, UniProt O14793); experiment: HepG2 reporter gene assay, Evaluation Procedure (2): 2-concentrations assay, myostatin inhibition; format: cell-based
T1 construct: active myostatin (also called mature myostatin) is a homodimer consisting of two C-terminal growth factor domains; purchased R&D systems 788-G8/CF
T1 sequence (O14793 267-375): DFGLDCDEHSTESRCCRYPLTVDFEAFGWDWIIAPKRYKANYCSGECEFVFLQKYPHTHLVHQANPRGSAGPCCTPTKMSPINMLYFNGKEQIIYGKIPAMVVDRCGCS
How it was run: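 Myostatin inhibition was measured in a luciferase reporter assay using HepG2 cells transfected with a pGL3 vector containing 12 CAGA repeats upstream of luciferase. After 20 to 24 hours with 10 ng/mL myostatin, cells received One-Glo:PBS (1:1) at 100 µL/well, were shaken for 5 min, and 20 µL/well was moved to 384-well plates and read on an Envision 2104.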

GDF-11 = molecular target: T2, GDF-11 (Homo sapiens, UniProt O95390); experiment: HepG2 reporter gene assay, Evaluation Procedure (2): 2-concentrations assay, GDF-11 inhibition; format: cell-based; conditions: for inhibition at 0.03 µM: HepG2, peptide 30nM, read-out: GDF11 Inhibition 30nM; for inhibition at 0.03 µM / inhibition at 0.1 µM: GDF-11 10 ng/mL; for inhibition at 0.1 µM: HepG2, peptide 100nM, read-out: GDF11 Inhibition 100nM
T2 construct: purchased R&D systems 1958-GD-G8/CF
T2 sequence (O95390 299-407): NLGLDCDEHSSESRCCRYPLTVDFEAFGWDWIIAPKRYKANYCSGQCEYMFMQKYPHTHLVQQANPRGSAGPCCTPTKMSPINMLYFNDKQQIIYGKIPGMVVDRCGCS
How it was run: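 HepG2 cells carrying the transfected pGL3(CAGA)12-luc reporter, a pGL3 vector with luciferase placed downstream of 12 CAGA repeats, were stimulated with GDF-11 at a final 10 ng/mL together with test peptide. Blank wells received no GDF-11 and no peptide. Plates were incubated 20 to 24 hours at 37°C with 5% CO2. Luminescence from One-Glo substrate was read to calculate percent inhibition.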

[1] = HepG2, read-out: inhibition rate (myostatin inhibition assay)
[2] = Table 7-3/7-4, myostatin 10 ng/mL, peptide at the higher of the 2 concentrations, HepG2, read-out: inhibition rate (myostatin inhibition assay)
[3] = Table 7-3/7-4, myostatin 10 ng/mL, peptide at the lower of the 2 concentrations, HepG2, read-out: inhibition rate (myostatin inhibition assay)
[4] = HepG2, first GDF-11 column of Table 7-3/7-4, GDF-11 10 ng/mL, peptide at the lower of the 2 concentrations, read-out: inhibition rate (GDF-11 inhibition assay)
[5] = HepG2, second GDF-11 column of Table 7-3/7-4, GDF-11 10 ng/mL, peptide at the higher of the 2 concentrations, read-out: inhibition rate (GDF-11 inhibition assay)
[6] = peptide 30nM, Myostatin 10 ng/mL, HepG2, read-out: Myostatin Inhibition 30nM
[7] = peptide 100nM, Myostatin 10 ng/mL, HepG2, read-out: Myostatin Inhibition 100nM

| inhibition at 0.03 µM (Myostatin; [6]) [%] | inhibition at 0.1 µM (Myostatin; [7]) [%] | inhibition at 0.03 µM (GDF-11) [%] | inhibition at 0.1 µM (GDF-11) [%] | Structure (SMILES) | other results |
| --- | --- | --- | --- | --- | --- |
| 18 | 58 | 0 | 0 | CCCCC[C@@H]1NC(=O)[C@H](Cc2ccccc2)N(C)C(=O)[C@H](CCCNC(=N)N)NC(=O)[C@H](Cc2ccc(C(=O)O)cc2)NC(=O)[C@H](Cc2cccc(OCC(=O)O)c2)NC(=O)CN(C)C(=O)[C@H]([C@@H](C)CC)NC(=O)[C@H](Cc2ccccc2)N(C)C(=O)[C@H](Cc2ccc(O)cc2)NC(=O)[C@H](Cc2c[nH]c3ccccc23)NC(=O)[C@H](C)NC(=O)CN(CCC(N)=O)C(=O)CSC[C@H](C(=O)O)NC(=O)[C@H](Cc2ccccc2)N(C)C(=O)[C@H](C)N(C)C1=O [Myostatin_99_v242] ({CH2CO}-[Gly(Nα-CH2CH2CONH2)]AWY[NMeF]I[Sar][Phe(3-OCH2COOH)][Phe(4-COOH)]R[NMeF][Ahp(2)][NMeA][NMeF][dC]-OH; thioether N-15) |  |
| 94 | 99 | 0 | 3 | CCCCCCC[C@@H]1NC(=O)[C@H](Cc2ccccc2)N(C)C(=O)[C@H](CCCNC(=N)N)NC(=O)[C@H](Cc2ccc(C(=O)O)cc2)NC(=O)[C@H](Cc2ccncc2)NC(=O)CN(C)C(=O)[C@H]([C@@H](C)CC)NC(=O)[C@H](Cc2ccccc2)N(C)C(=O)[C@H](Cc2ccc(O)cc2)NC(=O)[C@H](Cc2c[nH]c3ccccc23)NC(=O)[C@H](C)NC(=O)CN(CCCNC(C)=O)C(=O)CSC[C@H](C(=O)O)NC(=O)[C@H](Cc2ccccc2)N(C)C(=O)[C@H](C)N(C)C1=O [Myostatin_99_v225] ({CH2CO}-[X5]AWY[NMeF]I[Sar][4Pal][Phe(4-COOH)]R[NMeF][X1][NMeA][NMeF][dC]-OH; thioether N-15) |  |
| 40 | 65 | 0 | 0 | CC[C@H](C)[C@@H]1NC(=O)[C@H](Cc2ccccc2)N(C)C(=O)[C@H](Cc2ccc(O)cc2)NC(=O)[C@H](Cc2c[nH]c3ccccc23)NC(=O)[C@H](C)NC(=O)CN(CCCC(=O)O)C(=O)CSC[C@H](C(=O)O)NC(=O)[C@H](Cc2ccccc2)N(C)C(=O)[C@H](C)N(C)C(=O)[C@H](CC(C)C)NC(=O)[C@H](Cc2ccccc2)N(C)C(=O)[C@H](CCCNC(=N)N)NC(=O)[C@H](Cc2ccc(O)cc2)NC(=O)[C@H](Cc2ccc(C(=O)O)cc2)NC(=O)CN(C)C1=O [Myostatin_99_Variant_06] ({CH2CO}-[Gly(N(CH2)3COOH)]AWY[NMeF]I[Sar][Phe(4-COOH)]YR[NMeF]L[NMeA][NMeF][dC]-OH; thioether N-15) |  |

Continued, molecule first:

| Structure (SMILES) | inhibition at 0.03 µM (Myostatin; [6]) [%] | inhibition at 0.1 µM (Myostatin; [7]) [%] | inhibition at 0.03 µM (GDF-11) [%] | inhibition at 0.1 µM (GDF-11) [%] | other results |
| --- | --- | --- | --- | --- | --- |
| CCCCCCC[C@@H]1NC(=O)[C@H](Cc2ccccc2)N(C)C(=O)[C@H](CCCNC(=N)N)NC(=O)[C@H](Cc2ccc(C(=O)O)cc2)NC(=O)[C@H](Cc2ccc(-c3ccccc3OCC(=O)O)cc2)NC(=O)[C@H](C)N(C)C(=O)[C@H]([C@@H](C)CC)NC(=O)[C@H](Cc2ccccc2)N(C)C(=O)[C@H](Cc2ccc(O)cc2)NC(=O)[C@H](Cc2c[nH]c3ccccc23)NC(=O)[C@H](C)NC(=O)CN(CCCC(=O)O)C(=O)CSC[C@H](C(=O)O)NC(=O)[C@H](Cc2ccccc2)N(C)C(=O)[C@H](C)N(C)C1=O [Myostatin_99_v371] ({CH2CO}-[Gly(N(CH2)3COOH)]AWY[NMeF]I[NMeA][X3][Phe(4-COOH)]R[NMeF][X1][NMeA][NMeF][dC]-OH; thioether N-15) |  |  |  |  | inhibition at 0.03 µM (Myostatin; [1]): 100%; inhibition at 0.1 µM (Myostatin; [1]): 100%; inhibition (GDF-11; HepG2, read-out: inhibition rate (GDF-11 inhibition assay), Table 7-3/7-4, GDF-11 10 ng/mL, peptide at the higher of the 2 concentrations): 0%; inhibition (GDF-11; HepG2, read-out: inhibition rate (GDF-11 inhibition assay), Table 7-3/7-4, GDF-11 10 ng/mL, peptide at the lower of the 2 concentrations): 0% |
| CCCCCCC[C@@H]1NC(=O)[C@H](Cc2ccccc2)N(C)C(=O)[C@H](CCCNC(=N)N)NC(=O)[C@H](Cc2ccc(C(=O)O)cc2)NC(=O)[C@H](Cc2cccc(OCC(=O)O)c2)NC(=O)[C@H](C)N(C)C(=O)[C@H]([C@@H](C)CC)NC(=O)[C@H](Cc2ccccc2)N(C)C(=O)[C@H](Cc2ccc(O)cc2)NC(=O)[C@H](Cc2c[nH]c3ccccc23)NC(=O)[C@H](C)NC(=O)CN(CCCC(=O)O)C(=O)CSC[C@@H](C(N)=O)N(C)C(=O)[C@H](Cc2ccccc2)N(C)C(=O)[C@H](C)N(C)C1=O [Myostatin_99_v440] ({CH2CO}-[Gly(N(CH2)3COOH)]AWY[NMeF]I[NMeA][Phe(3-OCH2COOH)][Phe(4-COOH)]R[NMeF][X1][NMeA][NMeF][NMeC]-NH2; thioether N-15) |  |  |  |  | inhibition at 0.1 µM (Myostatin; [2]): 100%; inhibition at 0.03 µM (Myostatin; [3]): 99%; inhibition (GDF-11; [4]): 0%; inhibition (GDF-11; [5]): 9% |
| CCCCCCC[C@@H]1NC(=O)[C@H](Cc2ccccc2)N(C)C(=O)[C@H](CCCNC(=N)N)NC(=O)[C@H](Cc2ccc(C(=O)O)cc2)NC(=O)[C@H](Cc2cccc(OCC(=O)O)c2)NC(=O)CN(C)C(=O)[C@H]([C@@H](C)CC)NC(=O)[C@H](Cc2ccc3ccccc3c2)N(C)C(=O)[C@H](Cc2ccc(O)cc2)NC(=O)[C@H](Cc2c[nH]c3ccccc23)NC(=O)[C@H](C)NC(=O)[C@H](C)NC(=O)CSC[C@H](C(=O)N2CCN(CC(=O)O)CC2)NC(=O)[C@H](Cc2ccccc2)N(C)C(=O)[C@H](C)N(C)C1=O [Myostatin_99_v306] ({CH2CO}-AAWY[NMe2Nal]I[Sar][Phe(3-OCH2COOH)][Phe(4-COOH)]R[NMeF][X1][NMeA][NMeF][dC]-{Piperazinyl(4-CH2COOH)}; thioether N-15) |  |  |  |  | inhibition at 0.1 µM (Myostatin; [2]): 94%; inhibition at 0.03 µM (Myostatin; [3]): 80%; inhibition (GDF-11; [4]): 0%; inhibition (GDF-11; [5]): 0% |
| CC[C@H](C)[C@@H]1NC(=O)[C@H](Cc2ccccc2)N(C)C(=O)[C@H](Cc2ccc(O)cc2)NC(=O)[C@H](Cc2c[nH]c3ccccc23)NC(=O)[C@H](C)NC(=O)CN(CCCC(=O)O)C(=O)CSC[C@H](C(=O)N[C@H](CO)C(=O)N[C@H](CO)C(=O)N[C@H](CO)C(=O)N[C@H](CCCCN)C(=O)O)NC(=O)[C@H](Cc2ccccc2)N(C)C(=O)[C@H](C)N(C)C(=O)[C@H](CC(C)C)NC(=O)[C@H](Cc2ccccc2)N(C)C(=O)[C@H](CCCNC(=N)N)NC(=O)[C@H](Cc2ccc(C(=O)O)cc2)NC(=O)[C@H](Cc2ccc(O)cc2)NC(=O)CN(C)C1=O [Myostatin_99_v34] ({CH2CO}-[Gly(N(CH2)3COOH)]AWY[NMeF]I[Sar]Y[Phe(4-COOH)]R[NMeF]L[NMeA][NMeF][dC][dS][dS][dS][dK]-OH; thioether N-15) | 65 | 89 | 0 | 32 |  |
| CC[C@H](C)[C@@H]1NC(=O)[C@H](Cc2ccccc2)N(C)C(=O)[C@H](Cc2ccc(O)cc2)NC(=O)[C@H](Cc2c[nH]c3ccccc23)NC(=O)[C@H](C)NC(=O)CN(CCCC(=O)O)C(=O)CSC[C@H](C(=O)NCC(=O)N[C@H](CCC(=O)O)C(=O)NCC(=O)N[C@H](CCCCN)C(=O)O)NC(=O)[C@H](Cc2ccccc2)N(C)C(=O)[C@H](C)N(C)C(=O)[C@H](CC(C)C)NC(=O)[C@H](Cc2ccccc2)N(C)C(=O)[C@H](CCCNC(=N)N)NC(=O)[C@H](Cc2ccc(C(=O)O)cc2)NC(=O)[C@H](Cc2ccc(O)cc2)NC(=O)CN(C)C1=O [Myostatin_99_v27] ({CH2CO}-[Gly(N(CH2)3COOH)]AWY[NMeF]I[Sar]Y[Phe(4-COOH)]R[NMeF]L[NMeA][NMeF][dC]G[dE]G[dK]-OH; thioether N-15) | 24 | 54 | 0 | 0 |  |
